These results are taken from US20230406850A1, “CRYSTALLINE FORM OF HETEROCYCLIC COMPOUND, PREPARATION METHOD THEREFOR AND APPLICATION THEREOF” (WUHAN LL SCIENCE AND TECHNOLOGY DEVELOPMENT CO., LTD., priority 2020, published 2023).

≈ marks a conversion by molar mass, not a printed value.

For one series, the system named is SD rats. Briefly: Taste disorder test by double bottle method. It is filed as in vivo, rat. Conditions: single intraperitoneal injection, 15 minutes. The text has this: SPF male SD rats (6-8 weeks) received 3 days of adaptive drinking water training immediately after storage, and the specific training content was that animals were kept in a single cage, and two bottles of water (both common drinking water) were placed in each cage, and during the adaptive training, water treatment was forbidden all night (the drinking water bottle was removed), and drinking water was given again at 8:30 am to 5:30 pm, and then this cycle lasted for 3 days, and the two bottles of water were changed every day, and during the whole adaptive training period, animals were ate freely. All animal water bottles were removed 20 hours before the formal experiment, and water was banned until the time of the experiment. During the formal experiment, all animals were randomly divided into groups, and the test compound or vehicle was given before the water supply was renewed, and the drug was given by single intraperitoneal injection, and the administration time was determined according to the Tmax of the test compound. Then, the animals were placed in a single cage, and given two bottles of drinking water, one bottle of ordinary drinking water and one bottle of 0.3 mM tonic water, and the water consumption of animals was observed within 15 minutes, and the quinine water consumption/ordinary water consumption was statistically analyzed, with positive compound 2 as the positive control of taste disorder.

The subject of the next series is refractory cough. Conditions: phase II clinical trial; cited from earlier work.
A short description of series [1]: Pharmacokinetics, crystalline form I versus crystalline form V. It is filed as in vivo, Beagle dog. To be noted: 10 mg/kg po, fasting, male dogs. As to the method: Beagle dog (general grade, Beijing Masi Biotechnology Co., Ltd.) was given compound A by single oral gavage to study the pharmacokinetics of the compound in plasma. The test drug (100 mg/kg dosage, 5 mL/kg administration volume) was given by gavage, and samples were collected at 10 minutes, 30 minutes, 1 hour, 2 hours, 4 hours, 6 hours, 8 hours, 10 hours, 24 hours and 48 hours after administration: peripheral venipuncture was performed, and about 1.0 mL whole blood was collected from each animal at every time point, and blood samples were collected. Within 60 minutes after blood collection, 0.2 mL of whole blood was separated into a cryopreservation tube, and deionized water was added at a ratio of 1:1, which was mixed upside down and then frozen. The remaining samples were centrifuged at 2,000 g at 2 to 8° C. for 10 min to obtain plasma samples, and the hemolysis of each sample was recorded, and the influence on detection was evaluated, and then the color of plasma was observed and recorded on the blood collection table (“−” means no hemolysis, “+” means pink supernatant and “++” means red supernatant).
The concentration of compound A in plasma was determined by LC-MS/MS method (Non-GLP). The pharmacokinetic parameters were calculated by WinNonlin (Phoenix™, version 8.1) or other similar software. If applicable plasma drug concentration-time data are available, the following pharmacokinetic parameters are calculated: CL (clearance), Vss (steady-state apparent volume of distribution), T1/2 (elimination half-life), Cmax (peak concentration), Tmax (peak time), AUC (area under the concentration-time curve), MRT (mean residence time). Pharmacokinetic data were described by descriptive statistics, such as mean, standard deviation and sample size.
Comparison of crystalline form and crystalline form V is the same for 3 dogs (male), 10 mg/kg po, fasting, 0.5% CMC-Na stirring for 3 hours, and then administration (suspension), and the data obtained are as shown in Table 7.

Series [2] can be described thus: Solid-state crystal transformation between crystalline forms I and V. The series is classed as physicochemical. Conditions: mixture of forms I and V, oven at 60° C. and room temperature dryer, one week.
Series [3] can be described thus: Physical and chemical stability (stability boxes, XRPD and HPLC). It is filed as physicochemical. As to the method: About 10 mg of crystalline forms I, III and V were placed in the stability boxes at 40° C./75% RH (open) and 60° C. (covered) for seven days, and some samples were taken out for XRPD and HPLC tests at 0 and 7 days, respectively, to investigate their physical and chemical stability.

A short description of series [4]: Mechanical stability test (grinding and pelleting). The series is classed as physicochemical. To be noted: grinding 2 min and 5 min. As for the experimental part:
The mechanical stability of crystalline forms I and III were investigated by grinding and pelleting. Grinding test method: the sample to be measured was put in a mortar and grinded for 2 minutes and 5 minutes respectively, then XRPD was test, and the changes of crystalline form and crystallinity were observed. Pelleting test method: the sample was placed in the die of tablet press, kept at 40 MPa for one minute, and then the crystalline form taken out to test XRPD.

A short description of series [5]: Competitive slurrying experiment of crystalline forms I and V. The series is classed as physicochemical. Conditions: acetone, ethanol, room temperature and 60° C., three days. As for the experimental part: Competitive slurrying experiment was carried out: the same amount of crystalline forms I and V were weighed and mixed evenly, then XRPD was tested, and the results were used as T0 of competitive slurrying experiment. The mixture was slurried in acetone, ethanol and water at room temperature and 60° C. Three days later, solid samples were obtained by filtration, and. XRPD was tested.

Series [6] is described as follows: Solubility in biological media SGF, FaSSIF and FeSSIF. The series is classed as physicochemical. As for the experimental part: Compared with other crystalline forms, crystalline forms I, III and V show good solid properties, so their solubility was tested respectively.
10 mg of the sample was weighed, and then 2.0 mL of biological media buffer (i.e. the target concentration is 5 mg/mL) was added to form a suspension. The mixture was put in a constant temperature water bath shaker (37° C., 100 rpm), and sampled 500 μL at 0.5, 2 and 24 hours respectively. After filtration, the pH value and HPLC concentration of filtrate were tested respectively, and the solid sample obtained by filtration was tested by XRPD.

The nature of series [7]: Dynamic vapor sorption (DVS) hygroscopicity. It is filed as physicochemical. As to the method:
The solid was analyzed by DVS using IGA sorp dynamic vapor sorption instrument. • Temperature: 25° C. • Gas flow: 250 mL/min. • Scan cycle: 2. • Minimum test time: 30 min. • Maximum test time: 2 hours. • Waiting for balance: 98%.

Series [8] is described as follows: Water activity experiment (slurry in acetone/water). Conditions: three days. It is filed as physicochemical. As to the method: Water activity experiment was carried out. Crystalline forms I and V ([…]) were slurried in a mixed solvent in acetone/water with different water contents at room temperature and 60° C. for three days, and after three days, solid sample was filtered to test XRPD, and the experimental results are as shown in Table 4.

The mark [9] stands for this setting: male, beagle, dog, plasma, po, 10 mg/kg, 0.5% CMC-Na suspension.

With `COc1cc(C(C)C)c(Oc2cnc(N)nc2N)cc1S(N)(=O)=O` [Positive compound 2, reference compound], the “Quinine/tap water * 100%” value in the series on SD rats (10 mg/kg) is on record as 18.62%. For the same molecule, the “Quinine/tap water * 100%” value with SD rats (20 mg/kg) was found to be 34.99%. For the same molecule, in the series on refractory cough, the “effect on refractory cough” value is “good effect” and the taste side effect result is recorded as “taste disturbance is a serious problem”.

One may read the Cmax as the highest concentration seen after dosing. As usually defined, the Tmax is the time from dosing to the highest level. For orientation: AUC(0-inf) means total exposure, with the tail of the curve extrapolated. A high value points to high exposure. Usually MRT last stands for a mean duration of stay, worked out from the concentration-time curve. Usually Solubility stands for the concentration that dissolves in the medium under given conditions. A lower Solubility goes with little dissolved substance. A word on the solubility: it is the dissolved amount per volume that the medium holds. For the molecule `COC(=O)N1CCO[C@@H](Cc2c(-c3c(F)cc(S(N)(=O)=O)cc3F)nc3cc(Cl)ccn23)C1` [Crystalline form I, methyl (S)-2-((7-chloro-2-(2,6-difluoro-4-sulfamoylphenyl)imidazo[1,2-a]pyridin-3-yl)methyl)morpholine-4-carboxylate], the “AUC (crystalline form I):AUC (crystalline form V)” value in series [1] amounted to 300.53%. Further, the AUClast in [1] (0.5% CMC-Na suspension, plasma) was 7.92633 µg·h/mL. The Cmax in series [1] (0.5% CMC-Na suspension, plasma) was found to be 0.99133 µg/mL. Besides, in series [1] (0.5% CMC-Na suspension, plasma), the F was 35.2%. In addition, the T1/2 in series [1] (0.5% CMC-Na suspension, plasma) was determined as 11.91 h. Also, the Tmax in series [1] (0.5% CMC-Na suspension, plasma) is 2.00 h. In series [1] (setting [9]), the total exposure AUC(0-inf) came out at 8.94 µg·h/mL. Also, in series [1] (setting [9]), the MRT last was determined as 8.11 h. In addition, in [2], the “mutual crystal transformation in solid state” value was “no mutual crystal transformation trend”. For the same molecule, the “Initial purity (Peak area %)” value in series [3] (0 days) stood at 99.38 peak area %. Besides, the “Purity -7 days (peak area %)” value was determined as 99.38 peak area % in series [3] (40° C./75% RH (open)) and 99.37 peak area % in [3] (60° C. (covered)). Moreover, the “stability conclusion in words” value in series [3] (40° C./75% RH and 60° C., seven days) is recorded as “good chemical stability”. Moreover, the “crystalline form and crystallinity after grinding” value in series [4] is reported as “decreased significantly”. The “relative stability inferred from competitive slurrying and water activity tests” value in series [5] is recorded as “more stable in organic solvent system or mixed solvent with low water content (≤10%)”. In [6] (FaSSIF and FeSSIF buffer), the “crystalline form during the solubility test” value is “transformed into hydrate of crystalline form IV”. For the same molecule, the pH of filtrate turned out to be 6.4 in series [6] (FaSSIF, 0.5 h); 6.4 in series [6] (FaSSIF, 2 h); 6.4 in series [6] (FaSSIF, 24 h); 5.0 in series [6] (FeSSIF, 0.5 h); 5.1 in [6] (FeSSIF, 2 h); 5.1 in series [6] (FeSSIF, 24 h). Further, the pH of filtrate in series [6] (SGF, 0.5 h) stood at 1.2; in series [6] (SGF, 2 h), 1.3; in [6] (SGF, 24 h), 1.2. Also, the Solubility is 0.026 mg/mL (≈ 51.9 µM) in series [6] (FaSSIF, 0.5 h, 37° C.); 0.025 mg/mL (≈ 49.9 µM) in series [6] (FaSSIF, 2 h, 37° C.); 0.034 mg/mL (≈ 67.9 µM) in series [6] (FaSSIF, 24 h, 37° C.). Besides, in [6] (FeSSIF, 37 °C, fessif, thermodynamic from solid, FeSSIF, 0.5 h, 37° C., read-out: Solubility), the solubility at 0.5 h came out at 0.072 mg/mL (≈ 144 µM). Moreover, the solubility at 2 h in [6] (FeSSIF, 37 °C, fessif, thermodynamic from solid, FeSSIF, 2 h, 37° C., read-out: Solubility) turned out to be 0.083 mg/mL (≈ 166 µM). In [6] (FeSSIF, 37 °C, thermodynamic from solid, 24 h), this molecule displayed a solubility at 24 h of 0.107 mg/mL (≈ 214 µM). Moreover, in series [7], the “XRPD before and after the DVS test” value is reported as “remains unchanged”. For the same molecule, the “relative humidity above which transformed into hydrate of crystalline form IV” value in series [7] is given as “higher than 40 % RH”. In series [7] (25° C.), the “DVS pattern, behaviour in words” value is on record as “increases sharply”. Besides, in series [7] (80% RH, 25° C.), the “hygroscopicity (DVS)” value came out at 6.8%. Besides, the “The experimental results (crystalline form)” value in series [8] (water content 10%, 60° C.) was “Crystalline form VI”; in [8] (water content 10%, RT), “Crystalline form I”; in series [8] (water content 50%, 60° C.), “Crystalline form IV”; in [8] (water content 50%, RT), “Crystalline form IV”; in series [8] (water content 90%, 60° C.) it was “Crystalline form IV”; in [8] (water content 90%, RT), “Crystalline form IV”.
